Test results as given in patent US20070231256A1, “Compositions and methods for detecting and treating tumors containing acidic areas” (priority 2006, published 2007).
Several values for one entry are separate records, joined by “and”; a condition that tells them apart may be missing. Equal entries are not always repeated.

How the values were obtained:
[1] = Henderson-Hasselbalch calculation of percent in acid form; conditions: calculated; for Percent in Acid Form at pH 6.4: pH 6.4 (acidic areas of tumors); for Percent in Acid Form at pH 7.4: pH 7.4 (normal tissues)
From the text: The interstitial space in normal tissues is generally at or very near pH 7.4, and in acidic areas of tumors a pH of around 6.4 is fairly typical or readily achievable by known methods. If one knows the pKa value of an acid substance (pKa is the pH at which the acid moiety is half ionized in aqueous solution) one can use the Henderson-Hasselbalch equation (pH=pKa+log [A−]/[HA]) to calculate what fraction of that substance will be in the acid form at any selected pH. […] It should be noted that for carboxyl-containing substances whose acid forms are water soluble, the pKa and pS values are quite similar.
In these calculations the Henderson-Hasselbalch equation was used to calculate the relative concentration of salt and acid forms at a given pH for a substance having acid moieties with a specified pKa or pS value. Then a binomial expansion was used to calculate the concentration of the all-acid form for an onco tool containing 2 or 3 pH-switch components.

tumors = conditions: tumor-bearing mice, reduction of about 0.3 pH units in the tumors; cited from earlier work
physchem = assay: physchem
Experimental: In regard to initial testing, a simple pH titration of the prospective pH-switch structure in physiological saline is fast and easy and provides useful information about the key properties one is attempting to achieve.
Typically new structures that may be suitable as advanced pH-switch components are first assessed for their pS value. This entails preparing the sodium salt form of the structure and dissolving it at a concentration of 20 milliMolar in 15 ml of 0.15 Molar NaCl (deareated to remove CO2). […] A plot of pH versus volume of added HCl affords the pS value.
The sodium salts of compounds shown in FIG. 11a (designed to form internal acid-specific H-bond) and 11b (designed to form non-acid-specific H-bonds) were titrated in aqueous solution.

SMILES	Percent in Acid Form at pH 6.4 [1] [%]	Percent in Acid Form at pH 7.4 [1] [%]	improvement in tumor growth delay (tumors) [fold]	pKa (physchem)	minimum of first derivative of the titration curve (pH) (physchem; titrated in water / aqueous solution)
O=C(O)CCCc1ccc(N(CCCl)CCCl)cc1 [Chlorambucil]	20.1	2.4	1.7		
CCCCCCCC(=O)O [octanoic acid]				5.5	
CCC(=O)O [propionic acid]	2.9	0.3			
CCC[N+]1([O-])CCC(C(=O)O)CC1 (stereo not shown) [structure iii in FIG. 15b, N-oxide of N-propylisonipocotic acid]					~4.0 and ~5.6
